Test results as given in article PMC11659602, “Discovering covalent cyclic peptide inhibitors of peptidyl arginine deiminase 4 (PADI4) using mRNA-display with a genetically encoded electrophilic warhead” (Communications Chemistry, 2024).
“Also recorded” adds a separate entry of the source. Where two headings read alike, the source gives them in different places. Values belong to the compound of their own block, whether it stands above or below them. Where a SMILES comes first, the peptide text is derived from it. Bridges are numbered along the chain shown (N, C = ends). [ ]: non-standard residue; d: D form. Orn(fluoroacetimidoyl) = N=C(CF)NCCC[C@H](N)C(=O)O

Key:
[1] = molecular target: T1, PADI4 (Homo sapiens, UniProt Q9UM07); assay: COLDER inhibition assay, BAEE substrate, with or without 1 h preincubation; type: biochemical; conditions: for remaining activity at 0.003 µM: peptide 0.003 µM; for remaining activity at 0.01 µM: peptide 0.01 µM; for remaining activity at 3 µM: peptide 3 µM; for remaining activity at 30 µM: peptide 30 µM
T1 construct: His6; made in house
T1 sequence (Q9UM07 whole entry): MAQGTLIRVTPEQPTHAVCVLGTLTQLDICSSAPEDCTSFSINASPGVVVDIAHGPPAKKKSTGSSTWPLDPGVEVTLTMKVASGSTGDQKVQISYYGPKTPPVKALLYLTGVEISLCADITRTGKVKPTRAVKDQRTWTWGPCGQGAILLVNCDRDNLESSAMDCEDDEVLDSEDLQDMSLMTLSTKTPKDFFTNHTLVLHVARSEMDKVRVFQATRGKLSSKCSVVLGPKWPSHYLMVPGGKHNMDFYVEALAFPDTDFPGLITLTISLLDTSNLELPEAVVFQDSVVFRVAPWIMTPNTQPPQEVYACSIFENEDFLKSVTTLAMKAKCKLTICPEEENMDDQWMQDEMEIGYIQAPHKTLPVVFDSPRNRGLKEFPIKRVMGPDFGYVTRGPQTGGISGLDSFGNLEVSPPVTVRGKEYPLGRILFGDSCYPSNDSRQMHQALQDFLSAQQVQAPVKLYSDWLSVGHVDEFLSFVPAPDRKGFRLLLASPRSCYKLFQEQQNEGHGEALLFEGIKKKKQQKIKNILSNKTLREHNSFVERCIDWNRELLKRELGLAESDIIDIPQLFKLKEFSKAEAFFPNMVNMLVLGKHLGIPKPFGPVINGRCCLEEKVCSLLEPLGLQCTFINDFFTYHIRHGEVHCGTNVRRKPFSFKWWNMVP
Procedure, shortened: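 50 nM His-PADI4 with peptide (final 0.1× the 0.03-500 µM series), 0.6 mg/mL BSA, 10 mM CaCl2 in 50 mM HEPES, 150 mM NaCl, 2 mM DTT, pH 7.5, with or without 1 h preincubation before 10 mM BAEE. After 30 min at rt, EDTA-quenched; citrulline read colorimetrically at 540 nm; mean ± SEM, ≥2 replicates.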

[2] = molecular target: T1, PADI4; assay: Surface plasmon resonance (SPR), single cycle kinetics; type: binding
Procedure, shortened: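 Biotinylated His-PADI4 captured on CAP chip (~3000 RU); peptides as 5-point 3-fold series in HEPES, 150 mM NaCl, 10 mM CaCl2, 0.1% DMSO, pH 7.5, triplicate. Warhead peptides fitted two-state (k-2 = 0; Ki = k-1/k+1, kinact = k+2); others 1:1.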

[3] = molecular target: T1, PADI4; assay: Intact mass spectrometry of covalent labelling; type: binding; conditions: 20 µM PADI4, 200 µM peptide, 1 hour at rt
[4] = molecular target: T2, PADI4 C645A (Homo sapiens, UniProt Q9UM07, C645A); assay: Intact mass spectrometry of covalent labelling; type: binding; conditions: 20 µM protein, 200 µM peptide, 1 hour at rt
T2 construct: PADI4 (residues 1-663); made in house; host or cells: E. coli NiCo21(DE3)
T2 sequence (Q9UM07 whole entry C645A, the tested form may be a part): as the sequence (Q9UM07 whole entry) above, with C645A counted along it

[5] = tested on: PADI4; conditions: cited from earlier work
[6] = 1 h, T=1 (1 h preincubation), read-out: PADI4 activity, dose-response data of Figure S15 (individual replicates)
[7] = T=0 (no preincubation), read-out: PADI4 activity, dose-response data of Figure S15 (individual replicates)

- remaining activity at 0.003 µM [1, 6]: 108%
- remaining activity at 0.01 µM [1, 6]: 111%
- remaining activity at 3 µM [1, 6]: 87.4%
- remaining activity at 30 µM [1, 6]: 21.7%
- remaining activity at 0.003 µM [1, 7]: 103%
- remaining activity at 0.01 µM [1, 7]: 104%
- remaining activity at 0.03 µM ([1]; T=0 (no preincubation), peptide 0.03 µM, read-out: PADI4 activity, dose-response data of Figure S15 (individual replicates)): 101%
- remaining activity at 0.1 µM ([1]; T=0 (no preincubation), peptide 0.1 µM, read-out: PADI4 activity, dose-response data of Figure S15 (individual replicates)): 105%
- remaining activity at 0.3 µM ([1]; T=0 (no preincubation), peptide 0.3 µM, read-out: PADI4 activity, dose-response data of Figure S15 (individual replicates)): 105%
- remaining activity at 1 µM ([1]; T=0 (no preincubation), peptide 1 µM, read-out: PADI4 activity, dose-response data of Figure S15 (individual replicates)): 102%
- remaining activity at 3 µM [1, 7]: 101%
- remaining activity at 10 µM ([1]; T=0 (no preincubation), peptide 10 µM, read-out: PADI4 activity, dose-response data of Figure S15 (individual replicates)): 96.7%
- remaining activity at 30 µM [1, 7]: 86.3%
- k2 / kinact ([2]; each replicate): 0.0029 s⁻¹
- k-1 ([2]; each replicate): 0.00088 s⁻¹
- kinact ([2]; each replicate, read-out: k2 / kinact): 0.0025 s⁻¹
- binding to PADI4 by SPR ([2]; in words): among some of the poorest binders
- kinact ([2]; two-state reaction model, k+2, read-out: SPR kinact (converted)): 0.00267 s⁻¹
- Ki ([2]; two-state reaction model, k-1/k+1): 4.3 ± 3.1 µM
- covalent labelling of PADI4 C645A by intact MS [4]: no labelling
Compound: CC[C@H](C)[C@@H]1NC(=O)[C@@H](Cc2ccc(O)cc2)NC(=O)CSC[C@@H](C(=O)NCC(N)=O)NC(=O)[C@H]([C@@H](C)O)NC(=O)[C@H](C(C)C)NC(=O)[C@H](CC(=O)O)NC(=O)[C@H](CCCNC(=N)CF)NC(=O)[C@H](CC(C)C)NC(=O)[C@H](CC(=O)O)NC(=O)[C@H](Cc2c[nH]c3ccccc23)NC1=O [cP4_13] ({CH2CO}-[dY]IWDL[Orn(fluoroacetimidoyl)]DVTCG-NH2; thioether N-10)
- inhibition of PADI4 activity ([1]; COLDER, in words): Neither peptide had strong inhibitory activity
- covalent labelling of PADI4 by intact MS [3]: single; also recorded: covalently bind to C645 of PADI4

Compound: N=C(CF)NCCC[C@H](NC(=O)c1ccccc1)C(N)=O [Fluoroamidine]
- selectivity for PADI4 over PADI1 [5]: limited selectivity
